This is an account of results in US20240336565A1, “SOLID FORMS OF OSANETANT” (Acer Therapeutics, Inc., priority 2021, published 2024).

The nature of data set [1]: Comparative studies: 7-day stability. The format is physicochemical.
A short description of data set [2]: Long term stability: oxidation (6% H2O2) at 60° C. To be noted: 6% H2O2, 60° C., up to 14 days. It is filed as physicochemical. Summed up:
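Osanetant p-toluenesulfonate and benzenesulfonate salts (Form 1), prepared at 10× normal working concentration, were stored in 6% H2O2 at 60° C. in the dark. Samples taken at 1, 2, 4, 7 and 14 days, diluted to 2 mg/mL, and purity assessed by HPLC.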

Data set [3] in a line: Disproportionation study (stirring in water, XRPD, pH of liquor). It is filed as physicochemical. The note with it: 10 mg in 1 mL of water, 24 h at 25° C. The method, then:
After 24 h total, a white slurry was observed and was isolated by centrifugation. The solids were analyzed by XRPD. The pH of the filtered liquor was measured at 5.63. […] After 24 h total, a white slurry was observed and was isolated by centrifugation. The solids were analyzed by XRPD. The pH of the filtered liquor was measured (pH=5.09).

Data set [4] can be described thus: Solid form stability observations (scale up / polymorph work: drying, ambient conditions, aqueous media). The format is physicochemical. As for the experimental part: Two anhydrous forms of the osanetant p-toluenesulfonic acid were synthesized. […] Form 6, described below, was a stable anhydrous form, but hydrated in water and aqueous solvent mixtures.
Advantageously, Form 1 (hydrate) and Form 6 (anhydrous) were stable on drying. Form 1 re-hydrated at room temperature and pressure after KF analysis, when it was heated in an oven to remove the water.
The experiment was cooled to 5° C. at a rate of 0.1° C./min and stirred at 5° C. for 18 h. The slurry was isolated be Buchner filtration: 42.5 mm Ø grade 1 Whatman filter paper; fast Filtration (<30 s); the cake was washed with 1 mL of ethyl acetate; the isolated solids were dried at 40° C. under vacuum for 72 h. […]

Data set [5] can be described thus: Long term stability: base (2M NaOH) at 60° C. It is filed as physicochemical. To be noted: 2M NaOH, 60° C., up to 14 days. Summed up:
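Form 1 salts of osanetant (p-toluenesulfonic acid and benzenesulfonic acid) were prepared at 10 times the normal working osanetant content and stored in the dark. Samples taken at 1, 2, 4, 7 and 14 days were diluted to 2 mg/mL and analysed for purity.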

Data set [6] can be described thus: Thermodynamic solubility in water and pH buffers.
Data set [7] in a line: Hygroscopicity / dynamic vapor sorption (DVS). The format is physicochemical. As for the experimental part: The osanetant p-toluenesulfonic acid Form 1 solids consisted of aggregated crystals with an undefined morphology. Select peaks which can be used to characterize osanetant p-toluenesulfonic acid Form 1 include one or more of 11.4°2θ±0.2°2θ, 18.0°2θ±0.2°2θ, 19.0°2θ±0.2°2θ, 19.3°2θ±0.2°2θ, 19.8°2θ±0.2°2θ, or 21.1°2θ±0.2°2θ. In some embodiments, osanetant p-toluenesulfonic acid Form 1 is a monohydrate.

Data set [8] is described as follows: Long term stability: base (2M NaOH) at ambient temperature. It is filed as physicochemical. The note with it: 2M NaOH, dark, ambient, up to 14 days. The essentials: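 Osanetant tosylate and besylate Form 1 were prepared at 10× the working osanetant concentration, added to 2M NaOH, and stored in the dark at ambient conditions. Samples were taken at 1, 2, 4, 7 and 14 days and diluted to 2 mg/mL for HPLC purity analysis.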

A short description of data set [9]: Hydration study (stirring in ethanol: water mixtures, XRPD). It is filed as physicochemical. As for the experimental part: 20 mg of osanetant p-toluenesulfonic acid Form 1 was stirred in the appropriate ethanol: water mixtures for 24 h at 25° C. Where clear solutions were observed after 1 h at 25° C., 0.5 mL of liquor was removed, and additional solid was added until a slurry was maintained. After 24 h total, the experiments were isolated by centrifugation, and the solids were analyzed by XRPD.
Osanetant benzenesulfonic acid Form 3 (20 mg) was stirred in the appropriate ethanol: water mixtures for 24 h at 25° C. Where clear solutions were observed after 1 h at 25° C., 0.5 mL of liquor was removed from the Aw 0.257 sample, and additional solid was added until a slurry was maintained. After 24 h total, the experiments were isolated by centrifugation, and the solids were analyzed by XRPD.

Data set [10] can be described thus: Salt screen: XRPD of isolated solids after drying at 40° C. and at 40° C./75% RH. It is filed as physicochemical. Summed up:
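Amorphous lyophilized osanetant (~20 mg) slurried with 1.05 mol eq. counterion in solvent, thermally cycled 5–40 °C at 0.1 °C/min overnight. Solids isolated by centrifugation and analysed by XRPD, then re-analysed after ~24 h drying at 40 °C and again after ~24 h at 40 °C/75% RH.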

Structures are written as SMILES. “Also recorded” adds a separate entry of the source.

Take `CC(=O)N(C)C1(c2ccccc2)CCN(CCC[C@]2(c3ccc(Cl)c(Cl)c3)CCCN(C(=O)c3ccccc3)C2)CC1.Cc1ccc(S(=O)(=O)O)cc1` [osanetant p-toluenesulfonic acid Form 1, (R)-N-(1-(3-(1-benzoyl-3-(3,4-dichlorophenyl)piperidin-3-yl)propyl)-4-phenylpiperidin-4-yl)-N-methylacetamide p-toluenesulfonic acid]: the “impurities on 7-day stability” value in data set [1] (80° C.) is on record as “increase in impurities”. For the same compound, the “solid form on 7-day stability” value in [1] (7 days, elevated temperature where stated) is on record as “form was retained”. The physical stability result in data set [1] (in slurry at various water activity and pH, and at 40° C./75% RH and 80° C.) is listed as “physically stable”. Also, the “degradation on storage (purity)” value in data set [2], in data set [5] and in data set [8] was “lack of degradation” throughout. Also, the “XRPD form / disproportionation after stirring in water” value in data set [3] is recorded as “no change in form; also recorded: did not disproportionate”. In [3], the “pH of the filtered liquor” value was determined as 5.63. Moreover, the “form stability / re-hydration under ambient conditions” value in data set [4] (ambient conditions / room temperature and pressure) is listed as “re-hydrated”. For the same compound, the dehydration temperature result in data set [4] (dehydrates to Form 5) was “above 85 °C”. The form on drying entry in data set [4] (drying (40° C. under vacuum where stated)) is given as “stable; also recorded: no change”. The “Solubility in water and pH buffers” value in [6] is recorded as “low”. Further, the “hygroscopicity / water loss on DVS analysis” value in [7] is listed as “did not lose the water”. Also, in data set [7] (at 80% RH), the “weight gain (hygroscopicity)” value was 0.2 wt. %. In data set [9] (24 h at 25° C., all mixtures tested), the “XRPD form after stirring in ethanol: water mixtures” value was “no change in form”. Also, the XRPD result in [9] (slurry in ethanol:water 63.6:36.4 % v/v, calc Aw 0.745, 24 h at 25° C.) is recorded as “Form 1”; in [9] (slurry in ethanol:water 92.9:7.1 % v/v, calc Aw 0.507, 24 h at 25° C.), “Form 1”; in [9] (slurry in ethanol:water 98.4:1.6 % v/v, calc Aw 0.257, 24 h at 25° C.), “Form 1”. In data set [10] (after 40° C. drying, dried at 40° C./75% RH for about 24 h, label = form after 40° C. drying), the “XRPD after drying at 40° C./75% RH” value is “retained; also recorded: stable; also recorded: Form 1”. In addition, in data set [10] (isolated solids dried at 40° C. for about 24 h, label = wet form), the “XRPD after drying at 40° C.” value is recorded as “retained; also recorded: Form 1”.
